System: UV-induced ROS, primary human keratinocytes
Test: Inhibition of Reactive Oxygen Species Formation in primary human keratinocytes
Format: cell-based
Conditions: for Reactive Oxygen Species Produced (MFU): 60 minutes post UV
Experimental: The anti-oxidant activity of Paulownin was established via the Inhibition of Reactive Oxygen Species Formation assay described above. In this study primary human keratinocytes were substituted for human epithelial (KB) cells. The keratinocytes were plated in 96-well tissue culture treated plates at a density of 5000 cells/well in Dulbecco's modified Eagle's medium (DMEM) supplemented with 10% fetal bovine serum (Invitrogen Corp., San Diego, Calif.). After 48 hours, cells were incubated for 30 minutes with 5 μM of the hydrogen peroxide-sensitive fluorescent probe 5-(and-6)-chloromethyl-2′,7′-dichlorodihydro-fluorescein diacetate, acetyl ester (CM-H2DCFDA) (Invitrogen Corp., Carlsbad, Calif.). After incubation, the plate was rinsed to remove excess probe and Paulownin was added at the indicated concentrations. The plate was immediately read on a fluorescent plate reader set at wavelengths 485 nm excitation/530 nm emission to detect basal peroxide formation. The plate was then exposed to UV (1000W-Oriel solar simulator equipped with a 1 mm Schott WG 320 filter; UV dose applied 4.2 kJ/m^2 as measured at 360 nm). The plate was read 60 minutes post UV exposure and the data reported as mean fluorescent units (MFU).

`OC12COC(c3ccc4c(c3)OCO4)C1COC2c1ccc2c(c1)OCO2` (stereo not shown) [Paulownin] was tested, and the “UV-induced production of ROS (in words)” value was “significantly reduce”, the “Percent Inhibition of UV Induced ROS Formation” value (shortened to “Percent Inhibition”) (UV + 50 ug/ml) was 65.3% and the “Reactive Oxygen Species Produced (MFU)” value (UV + 50 ug/ml) was 46.3 ± 6.9 MFU. For the same molecule, the “Percent Inhibition” value (UV + 100 ug/ml) was 69.5%, the “Reactive Oxygen Species Produced (MFU)” value (UV + 100 ug/ml) was 40.5 ± 6.1 MFU and the “Percent Inhibition” value (UV + 200 ug/ml) was 72.1%. The “Reactive Oxygen Species Produced (MFU)” value (UV + 200 ug/ml) was 37.2 ± 3.4 MFU.
